Assay results published in patent publication US6365572B1, “Low molecular weight peptide derivatives as inhibitors of the laminin/nidogen interaction” (Aventis Pharma Deutschland GmbH, priority 1999, dated 2002).
Like-named read-outs stand apart in the source and are kept apart here. Non-standard residues stand in square brackets, D forms with d. Residues, ends and D or L forms follow the SMILES beside them. *: point of attachment. Bip = N[C@@H](Cc1ccc(-c2ccccc2)cc1)C(=O)O; 1Nal = N[C@@H](Cc1cccc2ccccc12)C(=O)O; 2Nal = N[C@@H](Cc1ccc2ccccc2c1)C(=O)O; Bta = N[C@@H](Cc1csc2ccccc12)C(=O)O; NH(3-hydroxypropyl) = OCCCN*

Biological target: T1, laminin/nidogen interaction (laminin P1, recombinantly produced human nidogen) (Homo sapiens, UniProt P14543)
T1 construct: made in house; host or cells: HEK-293
T1 sequence (P14543 29-1247): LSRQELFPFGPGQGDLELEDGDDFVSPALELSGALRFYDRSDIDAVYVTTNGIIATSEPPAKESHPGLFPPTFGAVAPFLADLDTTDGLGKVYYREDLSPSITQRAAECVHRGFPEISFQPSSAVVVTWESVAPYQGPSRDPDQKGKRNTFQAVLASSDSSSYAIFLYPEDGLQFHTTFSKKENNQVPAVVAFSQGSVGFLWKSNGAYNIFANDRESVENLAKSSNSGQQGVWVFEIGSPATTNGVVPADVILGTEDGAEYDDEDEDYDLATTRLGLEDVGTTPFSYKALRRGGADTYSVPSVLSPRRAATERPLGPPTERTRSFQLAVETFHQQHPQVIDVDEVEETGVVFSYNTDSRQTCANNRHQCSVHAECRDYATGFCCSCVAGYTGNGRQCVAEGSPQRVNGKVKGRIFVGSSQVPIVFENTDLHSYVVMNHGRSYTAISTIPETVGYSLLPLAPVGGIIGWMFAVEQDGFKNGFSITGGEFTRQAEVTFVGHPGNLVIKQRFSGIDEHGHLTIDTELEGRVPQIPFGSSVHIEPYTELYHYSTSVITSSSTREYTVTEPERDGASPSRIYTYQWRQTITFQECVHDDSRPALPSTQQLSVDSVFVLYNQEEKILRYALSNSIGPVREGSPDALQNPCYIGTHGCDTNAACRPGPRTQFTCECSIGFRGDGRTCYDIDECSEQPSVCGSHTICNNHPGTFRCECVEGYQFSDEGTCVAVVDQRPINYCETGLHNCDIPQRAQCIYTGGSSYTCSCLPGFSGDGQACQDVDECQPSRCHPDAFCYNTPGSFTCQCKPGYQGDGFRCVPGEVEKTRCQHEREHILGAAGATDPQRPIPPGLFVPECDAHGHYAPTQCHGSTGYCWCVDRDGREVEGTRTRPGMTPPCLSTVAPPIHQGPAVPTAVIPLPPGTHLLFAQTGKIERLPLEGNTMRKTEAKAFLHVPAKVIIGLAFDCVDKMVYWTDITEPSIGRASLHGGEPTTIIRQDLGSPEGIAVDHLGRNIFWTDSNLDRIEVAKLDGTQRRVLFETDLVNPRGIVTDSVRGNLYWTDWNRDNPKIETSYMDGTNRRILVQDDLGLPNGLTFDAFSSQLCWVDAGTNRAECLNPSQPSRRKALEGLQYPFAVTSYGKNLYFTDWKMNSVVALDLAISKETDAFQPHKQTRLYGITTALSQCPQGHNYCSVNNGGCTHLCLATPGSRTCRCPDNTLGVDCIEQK
Assay: HTS screening assay (time-resolved fluorescence), inhibition of laminin/nidogen binding
Conditions: read-out: IC50
Method: 5) The compound stocks were preincubated with nidogen (10 μl compound stock to 90 μl nidogen solution) and the assay was performed as described in the attached protocol, yielding a final screening concentration of 2.7 μM per compound. The isolation of laminin P1 from human placenta, human nidogen from transfected HEK-293 cells and mouse laminin γ1III 3-5 from HEK-293 cells is described in WO 98/31709. 3.1.1. HTS screening assay (highly sensitive assay variant): Time-Resolved Fluorescence Assay Coating of test tubes Microtiter plates (for example FluoroNunc®) were coated with 75 μl of a 0.1 μg/ml solution of laminin P1 (in 0.159 g of Na2CO3, 0.293 g of NaHCO3, 0.02 g of NaN3/liter, pH 9.2) at room temperature for 1 hour. The solution was then tipped off, and free binding sites were blocked by incubation with 0.5% BSA (in 7.9 g of NaCl, 1.2 g of Na2HPO4, 0.31 g of KCl, 0.23 g of NaH2PO4, 0.04% Tween 20/liter, pH 7.2) at room temperature for 0.5 hour. Completion of the blocking reaction was followed by decantation of the solution and washing once with 250 μl of washing buffer (PBS/0.04% Tween). Sequential inhibition In parallel with the coating, a preincubation of 85-100 μl of a 0.25 nM nidogen solution (recombinantly produced human nidogen) with inhibitor or standard was carried out in a separate reaction vessel (1 hour at room temperature in 7.9 g of NaCl, 1.2 g of Na2HPO4, 0.31 g of KCl, 0.23 g of NaH2PO4, 0.04% Tween 20/liter, 0.5% BSA, pH 7.2). 75 μl of the preincubation (nidogen+inhibitor or standard) were transferred into the coated wells of the microtiter plate and incubated at room temperature for 1 hour. This was followed by washing twice with PBS/0.04% Tween. Detection of the bound nidogen took place by incubation (at room temperature) for 1 hour with 75 μl of a specific antibody preparation obtained from yolks of eggs from a chicken immunized with human nidogen. The IgY fraction was used in a dilution of 1:500 in PBS/0.04% Tween. The complex of nidogen and specifically bound antibodies was, after washing twice with PBS/0.04% Tween, detected by adding anti-chicken IgY-biotin (75 μl of a 1:2500 dilution; Promega, Madison, Wis. 53711, 608-274-4330). An incubation time of 1 hour and washing twice with PBS/0.04% Tween were followed for this purpose by incubation with streptavidin-europium (Wallac; 1 hour at room temperature) and washing twice with PBS/0.04% Tween. It was finally possible, after adding 100 μl of enhancement solution (Wallac) and shaking for 5 minutes, to measure a fluorescence signal in a Victor multilabel counter using the europium protocol. The relation between the amount, of bound nidogen in the solutions with inhibitor and that of nidogen without added inhibitor was found.

[1] = results table 1.3, synthesized compounds 1 to 43
[2] = hit structures recovered from the pentamer library screening

| IC50 [1] [nM] | IC50 [2] [nM] | Compound |
| --- | --- | --- |
| 510 | 430 | CC(C)[C@H](NC(=O)[C@H](CC(=O)O)NC(=O)[C@H](CC(N)=O)NC(=O)[C@H](Cc1ccc2ccccc2c1)NC(=O)[C@@H](N)CC(=O)O)C(=O)NCC(=O)NCCCO [Compound 3, L-Aspartyl-L-3-(2-naphthyl)alanyl-L-asparaginyl-L-aspartyl-L-valyl-glycine-3-hydroxypropylamide] (H-D[2Nal]NDVG-{NH(3-hydroxypropyl)}) |
| 380 | 490 | CC(C)[C@H](NC(=O)[C@H](CO)NC(=O)[C@H](CC(N)=O)NC(=O)[C@H](Cc1ccc2ccccc2c1)NC(=O)[C@@H](N)CC(=O)O)C(=O)NCC(=O)NCCCO [Compound 4, L-Aspartyl-L-3-(2-naphthyl)alanyl-L-asparaginyl-L-seryl-L-valyl-glycine-3-hydroxypropylamide] (H-D[2Nal]NSVG-{NH(3-hydroxypropyl)}) |
| 750 | 370 | CC(C)[C@H](NC(=O)[C@H](C)NC(=O)[C@H](CC(N)=O)NC(=O)[C@H](Cc1ccc2ccccc2c1)NC(=O)[C@@H](N)CC(=O)O)C(=O)NCC(=O)NCCCO [Compound 5, L-Aspartyl-L-3-(2-naphthyl)alanyl-L-asparaginyl-L-alanyl-L-valyl-glycine-3-hydroxypropylamide] (H-D[2Nal]NAVG-{NH(3-hydroxypropyl)}) |
| 1380 | 640 | CC[C@H](C)[C@H](NC(=O)[C@H](CC(=O)O)NC(=O)[C@H](CC(N)=O)NC(=O)[C@H](Cc1ccc2ccccc2c1)NC(=O)[C@@H](N)CC(=O)O)C(=O)NCC(=O)NCCCO [Compound 6] (H-D[2Nal]NDIG-{NH(3-hydroxypropyl)}) |
| 600 | 810 | CC[C@H](C)[C@H](NC(=O)[C@H](CO)NC(=O)[C@H](CC(N)=O)NC(=O)[C@H](Cc1ccc2ccccc2c1)NC(=O)[C@@H](N)CC(=O)O)C(=O)NCC(=O)NCCCO [Compound 7, L-Aspartyl-L-3-(2-naphthyl)alanyl-L-asparaginyl-L-seryl-L-isoleucyl-glycine-3-hydroxypropylamide] (H-D[2Nal]NSIG-{NH(3-hydroxypropyl)}) |
| 700 | 470 | CC[C@H](C)[C@H](NC(=O)[C@H](C)NC(=O)[C@H](CC(N)=O)NC(=O)[C@H](Cc1ccc2ccccc2c1)NC(=O)[C@@H](N)CC(=O)O)C(=O)NCC(=O)NCCCO [Compound 8, L-Aspartyl-L-3-(2-naphthyl)alanyl-L-asparaginyl-L-alanyl-L-isoleucyl-glycine-3-hydroxypropylamide] (H-D[2Nal]NAIG-{NH(3-hydroxypropyl)}) |

Second part, the compound before the results:

| Compound | IC50 [1] [nM] | IC50 [2] [nM] |
| --- | --- | --- |
| CC(C)[C@H](NC(=O)[C@H](C)NC(=O)[C@H](CC(N)=O)NC(=O)C1[C@@H](c2ccc3ccccc3c2)CCN1C(=O)CCC(=O)O)C(N)=O (stereo in doubt) [Compound 34, Succinyl-L-(3R)-(2-naphthyl)prolyl-L-asparaginyl-L-alanyl-L-valine-amide] | 27 | – |
| CC[C@H](C)[C@H](NC(=O)[C@@H](N)CC(N)=O)C(=O)N[C@@H](CC(=O)O)C(=O)N1CCC[C@H]1C(=O)N[C@@H](CC(N)=O)C(=O)N[C@@H](C)C(=O)N[C@H](C(=O)NCC(=O)NCCCO)C(C)C [Compound 1, L-Asparaginyl-L-isoleucyl-L-aspartyl-L-prolyl-L-asparaginyl-L-alanyl-L-valyl-glycine-3-hydroxypropylamide, reference compound] (H-NIDPNAVG-{NH(3-hydroxypropyl)}) | 3900 | – |
| CC(C)[C@H](NC(=O)[C@H](C)NC(=O)[C@H](CC(N)=O)NC(=O)[C@@H]1CCCN1C(=O)[C@@H](N)CC(=O)O)C(=O)NCC(=O)NCCCO [Compound 2, L-Aspartyl-L-prolyl-L-asparaginyl-L-alanyl-L-valyl-glycine-3-hydroxypropylamide, reference compound] (H-DPNAVG-{NH(3-hydroxypropyl)}) | 7700 | – |
| CC(C)[C@H](NC(=O)[C@H](C)NC(=O)[C@H](CC(N)=O)NC(=O)[C@H](Cc1cccc2ccccc12)NC(=O)[C@@H](N)CC(=O)O)C(=O)NCC(=O)NCCCO [Compound 9, L-Aspartyl-L-3-(1-naphthyl)alanyl-L-asparaginyl-L-alanyl-L-valyl-glycine-3-hydroxypropylamide] (H-D[1Nal]NAVG-{NH(3-hydroxypropyl)}) | 8250 | – |
| CC(C)[C@H](NC(=O)[C@H](C)NC(=O)[C@H](CC(N)=O)NC(=O)[C@H](Cc1c[nH]c2ccccc12)NC(=O)[C@@H](N)CC(=O)O)C(=O)NCC(=O)NCCCO [Compound 10, L-Aspartyl-L-tryptophanyl-L-asparaginyl-L-alanyl-L-valyl-glycine-3-hydroxypropylamide] (H-DWNAVG-{NH(3-hydroxypropyl)}) | 8570 | – |
| CC(C)[C@H](NC(=O)[C@H](C)NC(=O)[C@H](CC(N)=O)NC(=O)[C@H](Cc1ccccc1)NC(=O)[C@@H](N)CC(=O)O)C(=O)NCC(=O)NCCCO [Compound 11, L-Aspartyl-L-phenylalanyl-L-asparaginyl-L-alanyl-L-valyl-glycine-3-hydroxypropylamide] (H-DFNAVG-{NH(3-hydroxypropyl)}) | 3380 | – |
| CC(C)[C@H](NC(=O)[C@H](C)NC(=O)[C@H](CC(N)=O)NC(=O)[C@H](Cc1ccc(O)cc1)NC(=O)[C@@H](N)CC(=O)O)C(=O)NCC(=O)NCCCO [Compound 12, L-Aspartyl-L-tyrosyl-L-asparaginyl-L-alanyl-L-valyl-glycine-3-hydroxypropylamide] (H-DYNAVG-{NH(3-hydroxypropyl)}) | 3790 | – |
| CC(C)[C@H](NC(=O)[C@H](C)NC(=O)[C@H](CC(N)=O)NC(=O)[C@H](Cc1csc2ccccc12)NC(=O)[C@@H](N)CC(=O)O)C(=O)NCC(=O)NCCCO [Compound 13, L-Aspartyl-L-3-(3-benzothienyl)alanyl-L-asparaginyl-L-alanyl-L-valyl-glycine-3-hydroxypropylamide] (H-D[Bta]NAVG-{NH(3-hydroxypropyl)}) | 7030 | – |
| CC(C)[C@H](NC(=O)[C@H](C)NC(=O)[C@H](CC(N)=O)NC(=O)[C@H](Cc1ccc(-c2ccccc2)cc1)NC(=O)[C@@H](N)CC(=O)O)C(=O)NCC(=O)NCCCO [Compound 14, L-Aspartyl-L-3-(4-biphenyl)alanyl-L-asparaginyl-L-alanyl-L-valyl-glycine-3-hydroxypropylamide] (H-D[Bip]NAVG-{NH(3-hydroxypropyl)}) | 940 | – |
